Laboratory results taken from publication PMC5847527, “Identification of a novel 2-oxindole fluorinated derivative as in vivo antitumor agent for prostate cancer acting via AMPK activation” (Scientific Reports, 2018).

Experiments:
[1] = biological target: T1, AMPK (Homo sapiens, UniProt Q13131); assay: AMPK and ACC phosphorylation by Western blot in PC-3 cells; format: cell-based; conditions: 25 µM, 1 hour
T1 construct: endogenous in cells; host or cells: PC-3, DU145, LNCaP
Text: To investigate the effect of the compounds on AMPK activity at cellular level, compounds 8a-c and 9a-b were selected to perform AMPK phosphorylation assays in human prostate cancer cell lines. We use the PC-3 cell line as it is androgen-resistant and represents the advanced and aggressive stage of prostate cancer. […] AMPK inhibits lipogenic pathway through phosphorylation of its well-known substrate acetyl-CoA carboxylase (ACC). To confirm the modulation of AMPK activity in prostate cells by the compounds, we determined levels of phosphorylated ACC in 2-oxindole fluorinated derivatives-treated cells. […] It is worthy to note that the highest ACC phosphorylation was obtained with compound 8c denoting a powerful activity of this compound in PC-3 cells.
(§1) Figure 2 Effect of 2-oxindole fluorinated derivatives on AMPK activity in prostate cancer cells. (A) PC-3, DU145 and LNCaP cells were treated with 25 µM of the selected 2-oxindole fluorinated derivatives for 1 hour. Levels of the phosphorylated AMPK (pAMPK), phosphorylated ACC (pACC) and their total forms were determined by Western blot. Upper panel, a representative Western blot of three different experiments. β-tubulin (β-Tub) serves as a loading control. […] Lower panels, densitometric analyses of bands represented as the mean of the ratio pAMPK/AMPK or pACC/ACC ± SD of three different experiments. *p < 0.05 compared with the controls by one-way ANOVA followed by Fisher’s LSD test; ^#p < 0.05 compared with 2-oxindole fluorinated derivates or with the AMPK activators AMP or A769662 by one-way ANOVA followed by Tukey test.
(§2) Human prostate cancer epithelial PC-3, DU145 and LNCaP and human prostate normal RWPE-1 cells were purchased from American Type Culture Collection (ATCC CRL-1435 CRL-1740 and CRL 11609 respectively) (Rockville, MD, USA). The human prostate normal PNT2 cell line was purchased to ECACC (European Collection of Cell cultures, Salisbury, SP4 0JG, UK). Cells were routinely grown in RPMI 1640 medium supplemented with 100 IU/ml penicillin G sodium, 100 µg/ml streptomycin sulfate, 0.25 µg/ml amphotericin B (Invitrogen, Paisley, UK) and 10% fetal calf serum. Cells were used at passages between 10–20. For treatment experiments, cells were plated and grown over night, the medium was then replaced with serum-free RPMI 1640 for 24 hours and then incubated with different doses of the compounds for the indicated times.
Cells were lysed in Lysis buffer (50 mM Tris pH 7.4, 0.8 M NaCl, 5 mM MgCl2, 0.1% Triton X-100) containing Protease Inhibitor and Phosphatase inhibitor Cocktails (Roche, Basel, Switzerland). Protein concentrations were measured by BioRad™ protein assay kit (Richmond, CA, USA). Equal amount of protein (20 μg) from each sample was separated on 8% SDS–PAGE gels and transferred to PVDF membranes (BioRad). The membranes were blocked with blocking buffer (1× TBS, 0.1% Tween 20 with 5% w/v fat-free dry milk), washed and incubated with primary antibodies at 4 °C for 12 h. The membranes were subsequently washed with TBS-T (1× TBS and 0.1% Tween 20) and incubated with horseradish peroxidase-conjugated anti-mouse or anti-rabbit IgG antibodies (Sigma, St Louis, MO, USA) at room temperature for 1 h. The immune complex was visualized with an ECL system (Cell Signaling Technology). Films were analyzed by densitometry. The anti-pAMPKα1-thr172, pACC-ser79, pP53, P21, pRaptor and the antibodies against the corresponding total forms were obtained from Cell Signaling Technology (Danvers, MA, USA). The anti-caspase 3 and anti-procaspase 3 were from Santa Cruz Biotechnology (Dallas, Texas, USA). The anti-HIF1A was from Novus Biologicals LLC (Littleton, CO, USA). The anti-Cyclin D1 antibody was obtained from ThermoFisher (Alcobendas, Madrid, Spain). All the other chemicals were obtained from Sigma (St. Louis, MO, USA).

[2] = test system: AMPK; assay: AMPK and ACC phosphorylation by Western blot in DU145 cells; format: cell-based, human; conditions: 25 µM, 1 hour
Protocol: as §1
Similar results were obtained although AMPK stimulation by compound 8c was not so strong (Fig. 2A). […]
Cells were lysed in Lysis buffer (50 mM Tris pH 7.4, 0.8 M NaCl, 5 mM MgCl2, 0.1% Triton X-100) containing Protease Inhibitor and Phosphatase inhibitor Cocktails (Roche, Basel, Switzerland). Protein concentrations were measured by BioRad™ protein assay kit (Richmond, CA, USA). […] Films were analyzed by densitometry. […]

[3] = test system: RWPE-1 cells; assay: Cell viability by MTT assay, RWPE-1 normal prostate cells; format: cell-based, human
Protocol: Figure 3 Comparison of the effect of 2-oxindole fluorinated derivatives on the proliferation of human prostate cancer cells. (A) Normal (PTN2 and RWPE-1) and cancer (PC3,DU145 and LNCaP) prostate cells were treated with different doses of the compounds for 24 hours and cell viability was monitored by MTT assay. […] (C) PC-3, DU145 and LNCaP cells were treated with 25 µM of compound 8c for different times. Values were normalized with the control and represent the mean ± SD of at least three independent experiments. *p < 0.05 and **p < 0.01 compared to control by the Student’s - test.
as §2
Cell viability was determined by 3-(4,5-dimethylthiazol-2-yl)-2,5-diphenyltetrazolium bromide (MTT) (Sigma-Aldrich) method. […] The optical density in each well was evaluated by measurement of absorbance at 490 and 650 nm using a microplate reader (ELX 800 Bio-Tek Intruments, INC). IC50 values were calculated using GraphPad Prism vs 6.0 (GraphPad Software, Inc, La Jolla, CA, USA). Cell viability was also determined by counting viable and dead cells by Trypan blue staining. Trypan blue positive and negative cells were counted using a Countess^TM automated cell counter (Invitrogen, Carlsbad, CA, USA). Results were expressed in relation to total number of cells counted.

T1 sequence (Q13131 whole entry): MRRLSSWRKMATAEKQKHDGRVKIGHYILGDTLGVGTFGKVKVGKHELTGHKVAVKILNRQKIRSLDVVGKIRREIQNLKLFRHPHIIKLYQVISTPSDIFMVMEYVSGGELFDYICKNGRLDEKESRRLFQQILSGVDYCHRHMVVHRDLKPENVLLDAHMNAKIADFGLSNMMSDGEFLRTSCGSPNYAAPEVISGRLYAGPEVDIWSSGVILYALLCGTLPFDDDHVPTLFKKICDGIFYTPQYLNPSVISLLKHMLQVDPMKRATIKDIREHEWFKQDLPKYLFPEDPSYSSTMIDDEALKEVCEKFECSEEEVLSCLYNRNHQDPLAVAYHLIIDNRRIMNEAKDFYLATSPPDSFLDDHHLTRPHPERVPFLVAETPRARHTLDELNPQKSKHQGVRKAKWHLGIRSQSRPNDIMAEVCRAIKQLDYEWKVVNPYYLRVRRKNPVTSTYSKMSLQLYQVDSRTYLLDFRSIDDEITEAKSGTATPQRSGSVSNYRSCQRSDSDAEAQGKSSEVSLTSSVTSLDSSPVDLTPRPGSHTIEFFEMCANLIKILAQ
T1 sequence (Q9Y478 2-270 partner limits assumed): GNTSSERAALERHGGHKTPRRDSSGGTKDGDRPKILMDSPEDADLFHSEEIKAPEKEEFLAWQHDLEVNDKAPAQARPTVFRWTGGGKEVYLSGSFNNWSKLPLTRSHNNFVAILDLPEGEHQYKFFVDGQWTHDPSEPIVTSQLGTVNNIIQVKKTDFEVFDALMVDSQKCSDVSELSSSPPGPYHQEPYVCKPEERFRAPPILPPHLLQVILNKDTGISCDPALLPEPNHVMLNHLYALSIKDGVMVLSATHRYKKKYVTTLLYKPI
T1 sequence (P54619 whole entry partner): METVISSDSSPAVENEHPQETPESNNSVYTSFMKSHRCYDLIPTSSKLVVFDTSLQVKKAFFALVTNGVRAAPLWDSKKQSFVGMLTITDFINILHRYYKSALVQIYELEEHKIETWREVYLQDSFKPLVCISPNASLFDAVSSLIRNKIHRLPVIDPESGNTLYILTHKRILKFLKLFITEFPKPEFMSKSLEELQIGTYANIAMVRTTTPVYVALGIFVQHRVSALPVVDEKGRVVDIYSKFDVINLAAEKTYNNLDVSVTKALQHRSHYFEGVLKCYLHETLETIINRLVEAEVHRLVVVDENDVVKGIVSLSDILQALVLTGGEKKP

**Q.** Which “ACC phosphorylation (pACC/ACC)” value [1] does the source give for `O=C1Nc2ccccc2C1(F)Cc1ccc(-c2ccccc2)o1` (centres unmarked) [Compound 8c, 3-fluoro-3-((5-phenylfuran-2-yl)methyl)indolin-2-one] here?
**A.** augmented pACC

**Q.** What about the “Thr172 phosphorylation of AMPK (pAMPK/AMPK)” value ([1]; compared to controls) of the same compound?
**A.** significant increase in Thr172 phosphorylation of AMPK

**Q.** And the “AMPK phosphorylation (pAMPK/AMPK)” value [2]?
**A.** stimulate AMPK in DU145 cells

**Q.** What about the IC50 ([3]; Homo sapiens, RWPE-1, MTT, 24 hours) of the same compound?
**A.** > 1 mM

**Q.** What about the “inhibitory efficacy on cells viability at 50 μM” value ([3]; RWPE-1, 50 μM) of the same compound?
**A.** 50%
